Data as given in patent publication US10596169B2, “Cancer treatment with combination of plinabulin and taxane” (BeyondSpring Inc., priority 2013, dated 2020).

System: stage IIIb/IV non-small cell lung cancer
Assay: Example 3: clinical study, efficacy (overall survival, response rate), Arm DN vs Arm D
Format: in vivo, human (NSCLC patients)
Settings: for OS / Response Rate: Arm DN (30 mg/m^2) vs Arm D
Protocol: The investor applied the optimum plinabulin and docetaxel combination treatment schedule derived from MV522 animal studies in NSCLC patients. Patients received therapy on Day 1 and Day 8 in 3-week cycles. Therapy on Day 1 consisted of 75 mg/m^2 docetaxel administered via intravenous infusion (IV) over 1 hour, followed 2 hours later (from the time the docetaxel infusion begins) by 30 mg/m^2 plinabulin administered via intravenous infusion (IV) over 30 minutes. Therapy on Day 8 consisted of 20 mg/m^2 or 30 mg/m^2 plinabulin administered via intravenous infusion (IV) over 30 minutes.
To compare the overall survival of patients with NSCLC treated with docetaxel to patients treated with docetaxel+plinabulin.
Secondary: • 1. To compare the response rate, duration of response, 6-month survival, and progression free survival in patients with NSCLC treated with docetaxel to patients with docetaxel+plinabulin; • 2. To compare the safety and adverse events profile of docetaxel to docetaxel+plinabulin.
This was an open-label study in patients with advanced NSCLC that had progressed after treatment with at least 1 chemotherapy regimen. Patients were randomized to receive either docetaxel plus plinabulin (DN) or docetaxel alone (75 mg/m^2) (D). 2 dosing cohorts were investigated: • 1) 30 mg/m^2 dosing cohort: Approximately 110 patients were to be randomized (1:1) to receive either docetaxel plus plinabulin at 30 mg/m^2 (DN 30 mg/m^2 arm) or docetaxel alone (D arm); • 2) 20 mg/m^2 dosing cohort: Approximately 57 patients were to be randomized (2:1) to receive either docetaxel plus plinabulin at 20 mg/m^2 (DN 20 mg/m^2 arm) or docetaxel (D arm) alone.
Patients received therapy on Day 1 and Day 8 in 3-week cycles.
Therapy on Day 1 consisted of 75 mg/m^2 docetaxel administered via intravenous infusion (IV) over 1 hour, followed 2 hours later (from the time the docetaxel infusion began) by placebo (Arm D) or 30 mg/m^2 or 20 mg/m^2 plinabulin (Arm DN) DN administered via intravenous infusion (IV) over 30 minutes. Oral dexamethasone (16 mg) was given the day prior to, the day of and the day following docetaxel infusion (Day 1). Therapy on Day 8 consisted of placebo (Arm D) or 30 mg/m^2 or 20 mg/m^2 plinabulin (Arm DN) administered via intravenous infusion (IV) over 30 minutes.
Patients with stage IIIb/IV non-small cell lung cancer that has progressed after treatment with at least one chemotherapy regimen.
Assessment of response to treatment occurred during the rest period of the second cycle (and approximately every 2 cycles thereafter).
Comparisons were made of efficacy endpoints between Arm D and Arm DN. The primary efficacy endpoint is overall survival. Secondary endpoints include response rate, duration of response, quality of life, neutropenia rate and G-CSF usage.
The distributions of overall survival and any other time-to-event endpoints were summarized using the Kaplan-Meier method. The log-rank test was used to compare the efficacy endpoints between treatment groups. All statistical tests were carried out using one-sided tests at the 5% level of significance. The primary objective of this trial is to assess the effect of the addition of plinabulin on overall survival.

CC(=O)O[C@@]12CO[C@@H]1C[C@H](O)[C@@]1(C)C(=O)[C@H](O)C3=C(C)[C@@H](OC(=O)[C@H](O)[C@@H](NC(=O)OC(C)(C)C)c4ccccc4)C[C@@](O)([C@@H](OC(=O)c4ccccc4)[C@H]21)C3(C)C [Docetaxel, docetaxel]
Overall survival (OS) (30 mg/m^2 group, all patients, docetaxel 75 mg/m^2): 7.5 M
OS (All Patients): 7.5 month
Response Rate (All Patients): 14.5%
OS (largest primary tumor >3 cm): 7.5 month
Response Rate (largest primary tumor >3 cm): 13.9%
OS (largest primary tumor >5 cm): 6.7 month
Response Rate (largest primary tumor >5 cm): 15%
OS (largest primary tumor >7 cm): 5.03 month
Response Rate (largest primary tumor >7 cm): 20%
OS (largest primary tumor ≤3 cm): 6.5 month
Response Rate (largest primary tumor ≤3 cm): 15.8%
Overall survival (OS) (subgroup all tumor <3 cm, plinabulin 30 mg/m^2): 6.47 M
Overall survival (OS) (subgroup at least one tumor with diameter greater than 3 cm, plinabulin 30 mg/m^2): 7.8 M
